This passage reports IC50 results from patent US5554728A, “Lipid conjugates of therapeutic peptides and protease inhibitors” (priority 1991, dated 1996).

The experiment concerns HIV. In kind it is cell-based. The protocol: Assay For The Reduction of HIV Syncytia Formed In HT4-6C Cells
The syncytia reduction assay as described by Larder, B. et al., science 243:1731-1734(1989) was used to measure the antiviral effect of protease inhibitor. A Hela cell line, HT4-6C, expressing the human CD4 receptor on its surface was trypsinized with 0.25% trypsin for 5 min. Cells were centrifuged to remove the residual trypsin, and the cell pellet was resuspended in DMEM with 10% FCS. HeLa cells were plated in 96 well plate (1×10^5 cells/well) overnight. Cell cultures were infected with HIV (approx. 100 PFU/well) for one hour. The […] were then prepared in stock solutions, and were then two fold diluted in 2% DMEM with 0.5% methylcellulose. 100 μl of each diluted antiviral agent is added into each well of HIV infected cells. The treated cell cultures were incubated in 37° C. CO2 incubator for 24 hours. Plates of HIV-infected cell cultures were fixed with methanol and stained with 1% crystal violet for 10 min., the dye is rinsed off with tap water. Each plate is dried and syncytia were counted. The antiviral effect of protease inhibitor is calculated by 50% syncytia reduction.

[1] abbreviates: antiviral effect calculated by 50% syncytia reduction, HIV-infected HT4-6C (HeLa, human CD4) cells, 24 hours incubation, read-out: IC50.

pIC50: −log10 of the molar value. Read-outs that look alike come from different tables or passages of the source. Non-standard residues stand in square brackets, D forms with d. Residues, ends and D or L forms follow the SMILES beside them. *: point of attachment. d1Nal = N[C@H](Cc1cccc2ccccc12)C(=O)O; d2Nal = N[C@H](Cc1ccc2ccccc2c1)C(=O)O; Isobutyloxycarbonyl = CC(C)COC(=O)*; Hica(2S) = CC(C)C[C@H](O)C(=O)O; Pip = O=C(O)[C@@H]1CCCCN1

The pIC50 is −log10 of the IC50, conventionally taken in molar units. Regarding `CC(C)C(NC(=O)OC(C)(C)C)C(=O)NC(Cc1ccccc1)C(=O)OCC(O)C(O)COC(=O)C(Cc1ccccc1)NC(=O)C(NC(=O)OC(C)(C)C)C(C)C` (stereo not drawn) [EXAMPLE 24, (Boc-Val-Phe-O--CH2 --CHOH)2], under setting [1], the negative logarithm of the IC50 (pIC50) is 6.00.
With `CC(C)(C)OC(=O)NC(CO)C(=O)NC(Cc1ccccc1)C(=O)OCC(O)C(O)COC(=O)C(Cc1ccccc1)NC(=O)C(CO)NC(=O)OC(C)(C)C` (stereo not drawn) [EXAMPLE 25, (Boc-Ser-Phe-O--CH2 --CHOH)2], under setting [1], the pIC50 was 5.52.
Take `COC(=O)[C@@H]1CCCCN1C(=O)[C@@H](Cc1ccc2ccccc2c1)NC(=O)[C@H](C)NC(=O)[C@H](C)NC(C)=O` [EXAMPLE 27-30, Ac-Ala-Ala-(D-b-Nal)-Pip-OMe] (Ac-AA[d2Nal][Pip]-OMe): the pIC50 (24 h) was below 4.00.
Compound `CC(C)COC(=O)N[C@H](Cc1ccccc1)C(=O)N[C@H](Cc1cccc2ccccc12)C(=O)N1CCCC[C@H]1C(=O)O[C@@H](CC(C)C)C(=O)N[C@H](C(N)=O)C(C)C` [EXAMPLE 27-40, i-Boc-(D-Phe)-(D-a-Nal)-Pip-(a-(OH)-Leu)-Val-NH2] (Isobutyloxycarbonyl-[dF][d1Nal][Pip][Hica(2S)]V-NH2) showed a negative logarithm of the IC50 (pIC50) (24 h) of 5.00.
